Data: patent publication US5043332A, “Novel 11β-substituted -19-nor-steriods” (priority 1981, dated 1991)

Legend:
[1] = target: T1, Androgen receptor of prostate of rats (Rattus norvegicus, UniProt P15207); experiment: Androgen receptor binding (displacement of tritiated product P); details: for relative affinity of tieing (ARL), Androgen: second table, incubation 24 H at 0° C.; for affinity for androgen receptors (in words): conclusion
T1 construct: The prostates were removed, weighed and homogenized at 0° C; from tissue; host or cells: rat prostate, 105,000 g supernatant (castrated male Sprague-Dawley rats)
T1 sequence (P15207 1-902): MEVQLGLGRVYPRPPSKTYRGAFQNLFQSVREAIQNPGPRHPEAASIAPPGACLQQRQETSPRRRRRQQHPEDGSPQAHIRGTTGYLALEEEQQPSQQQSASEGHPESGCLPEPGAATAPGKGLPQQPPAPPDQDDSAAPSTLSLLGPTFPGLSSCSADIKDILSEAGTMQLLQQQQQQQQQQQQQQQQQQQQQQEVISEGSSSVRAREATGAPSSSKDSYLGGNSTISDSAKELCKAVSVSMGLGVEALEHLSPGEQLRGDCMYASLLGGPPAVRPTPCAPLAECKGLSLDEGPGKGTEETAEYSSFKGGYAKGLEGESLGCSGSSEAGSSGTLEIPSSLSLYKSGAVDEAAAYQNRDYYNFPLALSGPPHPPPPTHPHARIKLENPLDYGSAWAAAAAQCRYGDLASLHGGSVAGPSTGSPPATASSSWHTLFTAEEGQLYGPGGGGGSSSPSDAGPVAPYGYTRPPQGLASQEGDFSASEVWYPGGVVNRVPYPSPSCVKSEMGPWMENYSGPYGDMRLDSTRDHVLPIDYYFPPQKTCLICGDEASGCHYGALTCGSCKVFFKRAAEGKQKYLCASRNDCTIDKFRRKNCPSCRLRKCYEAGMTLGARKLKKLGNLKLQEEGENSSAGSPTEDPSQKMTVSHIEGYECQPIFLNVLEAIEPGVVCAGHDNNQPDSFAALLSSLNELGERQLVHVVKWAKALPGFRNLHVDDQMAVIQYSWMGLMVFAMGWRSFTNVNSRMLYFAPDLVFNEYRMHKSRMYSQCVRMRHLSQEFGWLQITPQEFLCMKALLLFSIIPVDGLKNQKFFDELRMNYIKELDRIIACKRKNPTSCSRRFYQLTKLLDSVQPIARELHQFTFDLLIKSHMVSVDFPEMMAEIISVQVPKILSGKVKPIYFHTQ
How it was run: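 Male Sprague-Dawley EPOS rats of 160 to 200 g were castrated and killed 24 hours later. Prostates were homogenized at 0° C. in Tris 10 mM, 0.25M saccharose, HCl buffer at pH 7.4 (1 g tissue per 5 ml) and ultracentrifuged at 105,000 g. Cytosol was incubated with tritiated product P plus increasing cold competitor (0-1,000×10^-9 M). Bound tritium was measured by carbon-dextran adsorption. ARL was derived from the 50% inhibitory concentrations of reference and test compound.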

[2] = target: T2, Mineralcorticoidal receptor of kidneys of the rat (Rattus norvegicus, UniProt P22199); experiment: Mineralcorticoidal receptor binding (displacement of tritiated aldosterone); details: second table; incubation 24 H at 0° C.
T2 construct: from tissue; host or cells: rat kidney, 105,000 g supernatant (adrenalectomized male Sprague-Dawley rats)
T2 sequence (P22199 1-981): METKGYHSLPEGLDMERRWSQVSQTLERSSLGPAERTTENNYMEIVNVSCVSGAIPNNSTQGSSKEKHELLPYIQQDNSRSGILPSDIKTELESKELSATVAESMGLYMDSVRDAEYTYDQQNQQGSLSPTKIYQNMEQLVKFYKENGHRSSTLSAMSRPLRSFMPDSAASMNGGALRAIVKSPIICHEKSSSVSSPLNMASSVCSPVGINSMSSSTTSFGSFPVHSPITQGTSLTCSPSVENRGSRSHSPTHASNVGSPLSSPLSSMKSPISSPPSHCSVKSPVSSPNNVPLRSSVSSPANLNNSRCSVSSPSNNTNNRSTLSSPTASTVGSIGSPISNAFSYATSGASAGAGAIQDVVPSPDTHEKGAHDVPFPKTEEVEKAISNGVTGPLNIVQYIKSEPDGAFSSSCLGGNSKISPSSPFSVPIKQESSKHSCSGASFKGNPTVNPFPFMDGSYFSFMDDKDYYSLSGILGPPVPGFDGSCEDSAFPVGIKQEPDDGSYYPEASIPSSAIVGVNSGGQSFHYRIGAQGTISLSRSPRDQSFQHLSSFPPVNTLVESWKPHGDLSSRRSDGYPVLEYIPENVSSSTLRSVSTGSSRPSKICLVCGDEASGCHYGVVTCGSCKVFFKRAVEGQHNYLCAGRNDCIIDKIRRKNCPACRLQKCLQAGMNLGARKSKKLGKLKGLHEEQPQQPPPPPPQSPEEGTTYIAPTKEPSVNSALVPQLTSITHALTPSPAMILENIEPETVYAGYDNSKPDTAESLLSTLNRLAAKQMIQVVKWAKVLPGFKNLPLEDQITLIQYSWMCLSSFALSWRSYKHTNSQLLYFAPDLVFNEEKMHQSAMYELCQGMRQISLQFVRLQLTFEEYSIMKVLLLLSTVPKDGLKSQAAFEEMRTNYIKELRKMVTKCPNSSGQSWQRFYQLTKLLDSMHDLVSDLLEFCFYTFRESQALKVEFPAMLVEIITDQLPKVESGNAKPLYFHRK
Experimental: A. Mineralcorticoidal receptor of kidneys of the rat
Male Sprague-Dawley EOPS rats weighing 140 to 160 g surrenalectomized 4 to 8 days previously were killed and their kidneys were perfused in situ with 50 ml of a buffer (10 mM of Tris 0.25M of Saccharose and sufficient hydrochloric acid for a pH of 7.4). The kidneys were then removed, decapsulated and homogenized at 0° C. with a polytetrafluoroethylene-glass Potter (1 g of tissue per 3 ml of buffer). The homogenate was centrifuged for 10 minutes at 800 g at 9° C.
After elimination of the fixation of tritiated aldosterone with glucocorticoid receptor, 21-methyl-Δ^1,4,6 -pregnatriene-20-yne-11β,17β-diol-3-one fixed only with the glucocorticoid receptor was added to the supernatant at a final concentration of 10^-6 M. The suprenatant was ultracentrifuged at 105,000 g for 60 minutes and 0° C. and aliquoits of the resulting surnageant were incubated at 0° C. with a constant concentration (T) of tritiated aldosterone in the presence of increasing concentrations (0-2500×10^-9 M) of cold aldosterone or the cold test product. After a time (t) of incubation, the concentration of tied tritiated aldosterone (B) was measured by the technique of adsoprtion on carbon dextran.
The calculation of the relative affinity of […] (ARL) was identical for all of the above receptor tests. One traced the following two curves: the percentage of tied tritiated hormone B/T as a function of the logarithm of the cold hormone concentration and B/T as a function of the logarithm of the concentration of the cold test product. One determined the line of the equation. [formula]
The intersection of the I50 line and the curves permits one to determine the concentrations of the cold hormone of the reference (CH) and the cold test compound (CX) which inhibit by 50% the tieing of tritiated hormone with the receptor. The relative affinity of tieing (ARL) of the test product was determined by the equation: [formula]

| Structure (SMILES) | relative affinity of tieing (ARL), Androgen [1] | relative affinity of tieing (ARL), Mineralocorticoid [2] | affinity for androgen receptors (in words) [1] |
| --- | --- | --- | --- |
| C[C@]12C[C@H](c3ccc([N+](C)(C)[O-])cc3)[C@]34O[C@]35CCC(=O)C=C5CC[C@H]4[C@@H]1CC[C@@]2(O)C#CCl [Example 27, N-oxide of 11β-[4-(N,N-dimethylamino)-phenyl]-9α,10α-epoxy-21-chloro-19-nor-17α-Δ^4-pregnene-20-yne-17β-ol-3-one] | 2,8 | 0 |  |
| C#C[C@]1(O)CC[C@H]2[C@@H]3CCC4=CC(=O)CCC4=C3[C@@H](c3ccc(N(C)C)cc3)C[C@@]21C [Example 32, 11β-[4-(N,N-dimethylamino)-phenyl]-17α-ethynyl-Δ^4,9-estradiene-17β-ol-3-one] | 68 | 0 | slightly moderate affinity |
| C=CC[C@]1(O)CC[C@H]2[C@@H]3CCC4=CC(=O)CCC4=C3[C@@H](c3ccc(N(C)C)cc3)C[C@@]21C [Example 37, 11β-[4-(N,N-dimethylamino)-phenyl]-17α-(prop-2-enyl)-Δ^4,9-estradien-17β-ol-3-one] | 8 | 0,3 | slightly moderate affinity |
| CN(C)c1ccc([C@H]2C[C@@]3(C)[C@@H](CC[C@@]3(O)C#C[Si](C)(C)C)[C@@H]3CCC4=CC(=O)CCC4=C32)cc1 [Example 44, 11β-[4-(N,N-dimethylamino)-phenyl]-21-trimethylsilyl-19-nor-17α-Δ^4,9-pregnadiene-20-yne-17β-ol-3-one] | 4,6 | 0 |  |
